Like-named read-outs stand apart in the source and are kept apart here.
Assays:
FHC [1] = assay: Neuronal FHC protein levels by Western blot in cultured cortical neurons; format: cell-based, rat; conditions: for FHC protein levels: neurons in the absence of glia, 0.5 to 30 ng/mL, vs vehicle
Description: (§1) Rat cortical neurons were cultured in the presence of a glial feeder layer, using the bilaminar cell culture model. Due to the presence of glia this culture system largely preserves the in vivo mechanisms of neuronal growth and differentiation, but also allows for direct studies on neurons, which were separated from glia at the time of analysis. Selected experiments were performed using glia-free neuronal cultures, as noted, using previously described protocols (Sengupta et al., 2009, J. Neurosci. 29:2534-2544). Neurons were transfected at the time of plating by Nucleofection (Amaxa), or after 8 days in culture by lipofectamine (Invitrogen). All experiments were conducted at 21 DIV, unless otherwise noted. HDAC4 and control (scrambled) siRNA were obtained from Ambion (s170677 and 4390843), and FHC/scrambled shRNA from GenScript (custom order; shRNA vector also expressed GFP).
(§2) Protease and phosphatases inhibitors were added to both buffers.
Rat cortical neurons were cultured in serum-free media in the presence of a glial feeder layer (Shimizu, et al., 2011, J. Vis. Exp. 57). This culture system largely preserves the in vivo environment, due to the presence of glia; however, it still enables direct investigation of neurons that can be separated by the glia before experiments. Selected studies were also performed in neurons grown in the absence of glia for the entire culture period, as indicated (Sengupta, et al., 2009, J. Neurosci. 29(8):2534-44). All experiments were conducted between 8-13 days in vitro (DIV).
Total protein extracts were obtained using standard protocols. […] The following antibodies were used: anti-FHC (3998, Cell Signaling Technology, 1:1,000) and anti-β-actin (A2066, Sigma-Aldrich, 1:5,000).

pCXCR4-Ser339 = assay: Multispectral imaging of pCXCR4 optical density within MAP2+ neurons, non-human primate; format: in vivo, rhesus macaque; conditions: morphine treated macaques; frontal cortex
CXCR4 = assay: Multispectral imaging of total CXCR4 optical density within MAP2+ neurons, non-human primate; format: in vivo, rhesus macaque; conditions: morphine treated macaques; frontal cortex
Rat cortical neurons = format: cell-based; conditions: for effect on CXCL12-induced increase of spine density: AMD3100 100 ng/ml 20 min or PTx 100 ng/ml 18 hrs before CXCL12 (20 nM, 3 hours)
Description: as §1
For in vitro experiments, neurons were cultured in the presence of glia for 21 days, then fixed and stained for MAP2 (Millipore, 1:1000; detected with Goat antirabbit Alexa 568, Invitrogen 1:250) and counterstained with phalloidin (Invitrogen, 25 μg/mL). For FHC shRNA experiments neurons were identified and analyzed using incorporated GFP expression. Images were acquired with a Zeiss LSM5 laser scanning confocal microscope, using a 63× objective. Dendritic spines were defined as phalloidin- or GFP-positive protrusions clearly connected to the dendrite by a thin shaft. For each neuron 3-4 segments totaling at least […] in length were added to measure spine density, and each neuron was represented as a single data point. Each experiment included 3-4 coverslips from each of 2 or more separate preparations. For in vivo experiments, dendritic spines were visualized using a Golgi stain kit, following instructions from the manufacturer (FD NeuroTechnologies). Brains were rapidly removed, rinsed in H2O, and incubated in the Golgi stain for 2 weeks. The tissue was then cryoprotected in sucrose at 4° C. for 7 days, and frozen in isopentane. Brains were sectioned by cryostat at a thickness of 180 μm, and mounted on gelatin-coated microscope slides. Sections were allowed to dry overnight, and a signal intensification step performed before dehydrating, clearing in xylene, and coversliping with Permount (Fisher Scientific). Spine analysis was performed using Neurolucida software equipped with a 100× objective (FIG. 7A). Pyramidal neurons in layer 2-3 of prefrontal cortex were identified and reconstructed in their entirety, and total spine density for each neuron was reported as a single data point. 3 neurons were analyzed from each brain, and 4-5 brains used for each experimental group.

FHC [2] = assay: Multispectral imaging of FHC optical density within MAP2+ neurons, non-human primate; format: in vivo, rhesus macaque; conditions: morphine 3 then 5 mg/kg 3 times daily, 90-110 days; frontal cortex
[3] = test system: layer II/III pyramidal neurons of the prefrontal cortex; assay: In vivo dendritic spine analysis (Golgi stain, Neurolucida); parameters: species or system rat
[4] = test system: layer 2/3 pyramidal neurons in the prefrontal cortex; format: cell-based, rat
HDAC4 = assay: Nuclear HDAC4 levels by immunocytochemistry and western blot; format: cell-based, rat; conditions: pure neuronal culture; CXCL12 20 nM, 30 min
Description: as §2
Neurons were fixed in 4% paraformaldehyde, and stained with MAP2 (Millipore, 1:1000) and HDAC4 (Epigentek, 1:150), detected with cy2- and cy3-conjugated secondary antibodies. Cell nuclei were visualized with Hoechst (Invitrogen, 1:2000), and images were acquired with a Zeiss LSM5 laser scanning confocal microscope (Imager.Z1m), mounting 10, 20, 40, and 63× objectives.

FHC [5] = assay: FHC transcript levels in neurons; format: cell-based, rat; conditions: neurons in the absence of glia
HOS cells = assay: Calcein assay (labile iron pool); format: cell-based, human; conditions: DFO 100 µM, six hours; empty vector HOS cells
Description: HOS cells transfected with either empty vector (EV), wild type FHC (WT-FHC) or FHC 222 mutant (Mut-FHC) were plated in 96-well plates at 20,000 cells per well. After 24 hours of serum starvation, vehicle or the iron chelator DFO ([…]) were added, respectively, to the untreated EV wells (Control) and to the positive control wells (DFO). Six hours later all cells were washed with PBS, and loaded with the iron-binding dye calcein (200 μg/mL) for 20 minutes. Cells were then washed again in PBS, and calcein fluorescence measured (excitation 485 nm, emission 535 nm), as a measure of the labile iron pool.
Human osteosarcoma cells expressing high levels of CXCR4 (HOS-X4) were transfected with either of these FHC plasmids and selected to generate stable cell lines. First, in order to confirm the differential effects of these proteins on iron sequestration, free intracellular iron levels were compared using the fluorescent probe calcein. Calcein is delivered as a calcein-AM ester, which passes across the plasma membrane into cells and is cleaved by cytosolic esterases to produce membrane-impermeable calcein. The fluorescence of this trapped calcein is quenched following chelation with labile iron, and therefore the degree of quenching is a commonly used estimation of free intracellular iron levels.

[6] = AMD3100 1 μg ICV, 6 hours, CXCL12 20 nM, 3 hours slice incubation
[7] = held at −70 mV, picrotoxin, AMD3100 ICV or CXCL12 20 nM 3 hrs

## CN1CC[C@]23c4c5ccc(O)c4O[C@H]2[C@@H](O)C=C[C@H]3[C@H]1C5 [morphine]
FHC [1]; cultured rat cortical neurons, morphine 1 μm, 24 hours
  FHC levels: significantly increases FHC levels
pCXCR4-Ser339
  neuronal pCXCR4 levels: significant reduction in pCXCR4 levels
CXCR4
  total neuronal CXCR4 levels: unchanged
Rat cortical neurons; FHC-specific shRNA vs scrambled
  ability of morphine to regulate spines in FHC-deficient neurons: blocked
Rat cortical neurons; morphine 1 μm, 24 hours, 21 days culture
  number of dendritic spines: significant decrease in the number of dendritic spines
FHC [2]
  neuronal FHC (OD within MAP2+ neurons): significantly elevated

## pertussis toxin
Rat cortical neurons
  effect on CXCL12-induced increase of spine density: blocked

## c1cc(CN2CCCNCCNCCCNCC2)ccc1CN1CCCNCCNCCCNCC1 [AMD3100, 1,1′-[1,4-phenylenebis (methylene)]bis[1,4,8,11-tetraazacyclotetradecane], reference compound]
Rat cortical neurons
  effect on CXCL12-induced increase of spine density: blocked
[3]; osmotic pump into left lateral ventricle, 0.75 μg/hour for 4 days
  dendritic spine density: similarly able to decrease dendritic spine densities
[3]; single 1 μg ICV injection, 3-week-old rats, 6 hours post-injection
  dendritic spine density: significantly decreased spine densities
[4]
  20-80% rise time: 0.31 ± 0.02 ms
  after hyperpolarization: −12.8 ± 1.5 mV
  mEPSC amplitude: 16.55±0.55 pA
  mEPSC frequency: 2.27±0.33 Hz
  peak spike amplitude: 72.6 ± 5.3 mV
  resting membrane potential: −76.9 ± 2.3 mV
  spike half-width: 1.3 ± 0.12 ms
  spike number generation in response to varying step currents: no drug effect on spike number generation
  spike threshold: −38.4 ± 3.0 mV
[4]; [6]
  input resistance: 138.3 ± 9.5 M′Ω
[4]; [7]
  sEPSC amplitude: 16.79±0.80 pA
  sEPSC frequency: 3.84±0.65 Hz

## CXCL12: recombinant chemokine CXCL12 from Peprotech, endogenous CXCR4 ligand
Rat cortical neurons; 21 days culture with glial feeder layer, CXCL12 20 nM, 3 hours
  dendritic spine density: moderate but significant increase in spine density
Rat cortical neurons; HDAC4-specific siRNA, pure neuronal population
  effects of CXCL12 on spine density in HDAC4-deficient neurons: completely prevented
Rat cortical neurons; pure neuronal population, 21 days, 20 nM CXCL12, multiple time points
  dendritic spines: time-dependent increase in dendritic spines
[4]
  mEPSC amplitude: 25.25±1.02 pA
  mEPSC frequency: 1.43±0.25 Hz
  resting membrane potential: −76.1 ± 2.3 mV
  sEPSC amplitude: 25.32±0.43 pA
  sEPSC frequency: 1.85±0.41 Hz
[4]; [6]
  20-80% rise time: 0.29 ± 0.01 ms
  after hyperpolarization: −12.0 ± 0.9 mV
  input resistance: 121.8 ± 13.2 M′Ω
  peak spike amplitude: 74.0 ± 2.8 mV
  spike half-width: 1.2 ± 0.07 ms
  spike threshold: −42.9 ± 2.3 mV
[4]; current clamp, AMD3100 ICV or CXCL12 ex vivo vs vehicle
  spike number generation in response to varying step currents: no drug effect on spike number generation
HDAC4
  nuclear HDAC4 levels: increased nuclear HDAC4 levels

## TNF-α
FHC [1]
  FHC protein levels: significant increase of FHC protein levels
FHC [5]
  FHC transcript levels: increased

## CC(=O)N(O)CCCCCNC(=O)CCC(=O)N(O)CCCCCNC(=O)CCC(=O)N(O)CCCCCN [DFO, desferrioxamine]
HOS cells
  calcein fluorescence: increased

## IL-1β: Recombinant IL-1β, proinflammatory cytokine, R&D Systems
FHC [1]
  FHC protein levels: significant increase of FHC protein levels
FHC [5]
  FHC transcript levels: did not affect levels of FHC mRNA

From US20160271248A1, “CXCR4 UP- AND DOWN-REGULATION FOR TREATMENT OF DISEASES OR DISORDERS” (priority 2013, published 2016)
